In PMC3094704, “S-Petasin, the Main Sesquiterpene of Petasites formosanus, Inhibits Phosphodiesterase Activity and Suppresses Ovalbumin-Induced Airway Hyperresponsiveness” (Evidence-based Complementary and Alternative Medicine : eCAM, 2011):
Counter-ions that a name gives are not always drawn.

Legend:
PDE2 = target: T1, PDE2 (Cavia porcellus, UniProt A0A286XUV5); experiment: Inhibition of PDE2 activity (two-step radioenzymatic assay); type: biochemical, guinea pig; settings: mean ± SEM (n); read-out: IC50 on PDE isozyme 2
T1 sequence (A0A286XUV5 22-936): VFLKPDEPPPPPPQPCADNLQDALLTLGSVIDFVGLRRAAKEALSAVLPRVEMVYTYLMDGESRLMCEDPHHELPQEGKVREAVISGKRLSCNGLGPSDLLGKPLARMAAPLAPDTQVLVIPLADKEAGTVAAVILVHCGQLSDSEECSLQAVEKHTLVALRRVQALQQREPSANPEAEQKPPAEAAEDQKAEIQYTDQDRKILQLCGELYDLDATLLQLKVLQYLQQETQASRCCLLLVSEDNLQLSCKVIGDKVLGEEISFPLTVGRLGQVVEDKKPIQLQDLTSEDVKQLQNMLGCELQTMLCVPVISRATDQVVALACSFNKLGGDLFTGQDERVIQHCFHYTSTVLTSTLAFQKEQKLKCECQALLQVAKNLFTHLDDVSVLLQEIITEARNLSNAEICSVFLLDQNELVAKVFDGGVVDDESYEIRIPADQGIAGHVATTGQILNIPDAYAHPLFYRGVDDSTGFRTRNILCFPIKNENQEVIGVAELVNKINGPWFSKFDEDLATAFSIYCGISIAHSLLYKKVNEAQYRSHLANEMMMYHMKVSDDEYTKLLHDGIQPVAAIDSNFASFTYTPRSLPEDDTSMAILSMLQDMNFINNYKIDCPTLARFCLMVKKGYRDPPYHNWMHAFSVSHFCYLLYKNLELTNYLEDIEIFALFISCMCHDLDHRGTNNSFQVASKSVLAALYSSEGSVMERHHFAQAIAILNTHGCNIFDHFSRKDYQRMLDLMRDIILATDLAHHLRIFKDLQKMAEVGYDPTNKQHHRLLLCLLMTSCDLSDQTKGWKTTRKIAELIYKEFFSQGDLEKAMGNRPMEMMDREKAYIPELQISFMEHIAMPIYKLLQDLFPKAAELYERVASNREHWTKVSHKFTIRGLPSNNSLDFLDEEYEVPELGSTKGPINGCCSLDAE
Procedure: Activities of PDE1–5, partially separated from guinea pig lungs and hearts according to the method described by Ko et al., were measured with a two-step procedure according to the method of Thompson and Appleman, using cAMP with [^3H]-cAMP or cGMP with [^3H]-cGMP as substrates. The enzyme pμreparation (25 μL) was incubated for 30 min at 37°C in a total assay volume of […] containing 50 mM Tris-HCl (pH 7.4), 3 mM MgCl2, 1 mM dithiothreitol, 0.05% BSA, 1 μM cAMP with 0.2 μCi [^3H]-cAMP as a substrate alone or in the presence of 0.1 units calmodulin with 10 μM CaCl2 or 5 μM cGMP, and 1 μM cGMP with 0.2 μCi [^3H]-cGMP as another substrate alone or in the presence of 0.1 units calmodulin with 10 μM CaCl2. […] The reagents and homogenate were mixed on ice, and the reaction was initiated by transferring the mixture to a water bath at 37°C. Following a 30-min incubation, the reaction was stopped by transferring the reaction vessel to a bath of boiling water for 3 min. After cooling on ice, 20 μL of a 1 mg/mL solution of C. atrox snake venom was added to the reaction mixture, and the mixture was incubated at 37°C for 10 min. Unreacted [^3H]-cAMP or [^3H]-cGMP was removed by the addition of 500 μL of a 1-in-1 Tris-HCl (40 mM) buffer suspension of Dowex resin (1 × 8-200) with incubation on ice for 30 min. […]

[1] = system: isolated sensitized guinea pig trachea; experiment: OVA-induced tracheal contractions and baseline tension in vitro
Procedure: Male Hartley guinea pigs (500–600 g) were sensitized by intramuscular injections of 0.7 mL of 5% (w/v) OVA in saline on Days 1, 4 and 43, and in adjuvant on Days 25 and 39 into each thigh, according to a method described by Underwood et al. and modified by us. Three days after the last injection, sensitized guinea pigs were sacrificed by cervical dislocation, and their tracheas removed. Each trachea was cut into six segments. Each segment consisted of three cartilage rings. All segments were cut open opposite the trachealis. […] Tissues were suspended in normal Krebs solution under an initial tension of 1.5 g and allowed to equilibrate for at least 1 h with washing at 15-min intervals. After the tissues were precontracted with KCl (60 mM) and washed with normal Krebs solution, OVA (0.1–100 μg/mL) was cumulatively added, and contractions were allowed to reach a steady state at each concentration. […] Therefore, the log concentration-response curves of OVA were constructed in the absence and presence of S-petasin. The tension of the precontraction induced by KCl was set as 100%.

[2] = system: high-affinity rolipram binding sites (HARBSs) of guinea pig brain cell membranes; experiment: Displacement of [3H]-rolipram (PDE4H determination)
Procedure: When the above-described guinea pigs were sacrificed, the whole brains were removed and homogenized with a glass/Teflon homogenizer (Glas-Col, Terre Haute, IN, USA) in 10 volumes of cold medium (pH 6.5) containing 20 mM Bis-Tris, 2 mM benzamidine, 2 mM EDTA, 50 mM sodium chloride, 0.1 mM PMSF and 1 mM dithiothreitol. At 4°C, the homogenate was centrifuged at 170 g for 5 min to remove connective tissues and blood vessels. The suspended homogenate was then re-centrifuged at 40 000 g for 30 min to separate the cytosolic and particulate portions. The particulate portion was re-suspended in a suspension at a concentration of 400 mg/mL (wet weight/volume), after washing three times with homogenizing buffer. The particulate portion mainly consisted of cell membranes. The binding ability of S-petasin (3–300 μM) or Ro 20-1724 (1–10,000 nM), a reference drug, to high-affinity rolipram binding sites (HARBSs) of the membranes was determined by replacing 2 nM [^3H]-rolipram in a reaction buffer at 30°C for 1 h, according to the method described by previous investigators and modified by us. Briefly, the reaction buffer consisted of 50 mM Tris-HCl and 5 mM MgCl2 (pH 7.5). The total volume of the reaction mixture was 25 μL, consisting of 10 μL of particulate suspension, 10 μL of [^3H]-rolipram and 5 μL of S-petasin or Ro 20-1724. After 1 h, the reaction was terminated by moving the reaction vessel into crushed ice. Then the reaction mixture was transferred onto Whatman GF/B glass-fiber filters, which were soaked in a 0.3% polyethyleneimine solution in a mini-funnel. The reaction mixture was filtered by centrifuging at 90 g for 10 s, and the filtrate was collected into a 1.5 mL Eppendorf tube with a top adapted to the outlet of the mini-funnel. The filters were washed with 300 μL of reaction buffer three times each in the same way, and transferred into 2 mL of cocktail for radiation counting (total binding) using a β-scintillation counter (Beckman, Fullerton, CA, USA). Non-specific binding, which was defined in the presence of 10 μM Ro 20-1724, was subtracted from the total binding to yield the specific binding. The effective concentration (EC50) values of S-petasin and Ro 20-1724, at which a half of [^3H]-rolipram bound onto HARBSs of cell membranes was displaced, were defined as the PDE4H values, and these were related to any adverse effects, such as nausea, vomiting and gastric hypersecretion.

PDE4 = experiment: Inhibition of PDE4 activity and Lineweaver-Burk analysis; type: biochemical, guinea pig
Procedure: Activities of PDE1–5, partially separated from guinea pig lungs and hearts according to the method described by Ko et al., were measured with a two-step procedure according to the method of Thompson and Appleman, using cAMP with [^3H]-cAMP or cGMP with [^3H]-cGMP as substrates. The enzyme pμreparation (25 μL) was incubated for 30 min at 37°C in a total assay volume of […] containing 50 mM Tris-HCl (pH 7.4), 3 mM MgCl2, 1 mM dithiothreitol, 0.05% BSA, 1 μM cAMP with 0.2 μCi [^3H]-cAMP as a substrate alone or in the presence of 0.1 units calmodulin with 10 μM CaCl2 or 5 μM cGMP, and 1 μM cGMP with 0.2 μCi [^3H]-cGMP as another substrate alone or in the presence of 0.1 units calmodulin with 10 μM CaCl2. In tests of enzyme inhibition, the reaction mixture contained 10 μL of vehicle or inhibitors, at various concentrations of S-petasin or selective PDE1–5 inhibitors, such as vinpocetin [22], EHNA [23], milrinone, Ro 20-1724 [25] and zaprinast, as reference drugs. The reagents and homogenate were mixed on ice, and the reaction was initiated by transferring the mixture to a water bath at 37°C. Following a 30-min incubation, the reaction was stopped by transferring the reaction vessel to a bath of boiling water for 3 min. After cooling on ice, 20 μL of a 1 mg/mL solution of C. atrox snake venom was added to the reaction mixture, and the mixture was incubated at 37°C for 10 min. Unreacted [^3H]-cAMP or [^3H]-cGMP was removed by the addition of 500 μL of a 1-in-1 Tris-HCl (40 mM) buffer suspension of Dowex resin (1 × 8-200) with incubation on ice for 30 min. Each tube was then centrifuged for 2 min at 3700 g, and 150 μL of the supernatant was removed for liquid scintillation counting. Less than 10% of the tritiated cyclic nucleotide was hydrolyzed in this assay. The total protein in each fraction used was assayed according to the method described by Bradford. The PDE activities are shown as nmol/mg/min in the Lineweaver-Burk analysis.

PDE3 = experiment: Inhibition of PDE3 activity and Lineweaver-Burk analysis; type: biochemical, guinea pig
Procedure: Activities of PDE1–5, partially separated from guinea pig lungs and hearts according to the method described by Ko et al., were measured with a two-step procedure according to the method of Thompson and Appleman, using cAMP with [^3H]-cAMP or cGMP with [^3H]-cGMP as substrates. The enzyme pμreparation (25 μL) was incubated for 30 min at 37°C in a total assay volume of […] containing 50 mM Tris-HCl (pH 7.4), 3 mM MgCl2, 1 mM dithiothreitol, 0.05% BSA, 1 μM cAMP with 0.2 μCi [^3H]-cAMP as a substrate alone or in the presence of 0.1 units calmodulin with 10 μM CaCl2 or 5 μM cGMP, and 1 μM cGMP with 0.2 μCi [^3H]-cGMP as another substrate alone or in the presence of 0.1 units calmodulin with 10 μM CaCl2. […] The reagents and homogenate were mixed on ice, and the reaction was initiated by transferring the mixture to a water bath at 37°C. Following a 30-min incubation, the reaction was stopped by transferring the reaction vessel to a bath of boiling water for 3 min. After cooling on ice, 20 μL of a 1 mg/mL solution of C. atrox snake venom was added to the reaction mixture, and the mixture was incubated at 37°C for 10 min. Unreacted [^3H]-cAMP or [^3H]-cGMP was removed by the addition of 500 μL of a 1-in-1 Tris-HCl (40 mM) buffer suspension of Dowex resin (1 × 8-200) with incubation on ice for 30 min. Each tube was then centrifuged for 2 min at 3700 g, and 150 μL of the supernatant was removed for liquid scintillation counting. […] The total protein in each fraction used was assayed according to the method described by Bradford. The PDE activities are shown as nmol/mg/min in the Lineweaver-Burk analysis.

Compound: CCCCCC[C@@H]([C@@H](C)O)n1cnc2c(N)ncnc21 (racemic) [EHNA, erythro-9-(2-hydroxy-3-nonyl)-adenine HCl]
- IC50 (PDE2): 6.5 ± 1 µM

Compound: CCCCOc1cc(CC2CNC(=O)N2)ccc1OC (stereo not drawn) [Ro 20-1724, 4-(3-butoxy-4-methoxybenzyl)-2-imidazolidinone, reference compound]
- OVA (10 μg/mL)-induced contractions ([1]; 30 μM): significantly inhibited
- Baseline tension ([1]; 3–30 μM): concentration-dependently and significantly relaxed
- OVA (10–100 μg/mL)-induced contractions ([1]; 10–30 μM): concentration-dependently inhibited
- EC50 ([2]; HARBSs of guinea pig brain cell membranes): 95.8 ± 13.6 nM
- percentage displacement of [3H]-rolipram binding ([2]; at the highest concentration (10 000 nM), 2 nM [3H]-rolipram): 100%±2.1%
- Ki (PDE4; Lineweaver-Burk analysis, cAMP substrate, read-out: Ki on PDE isozyme 4): 4.2 ± 0.7 µM
- Mode of inhibition of PDE4 activity (PDE4; Lineweaver-Burk analysis, S-petasin 3–30 μM, Ro 20-1724 1–10 μM): competitively inhibited
- IC50 (PDE4; mean ± SEM (n), read-out: IC50 on PDE isozyme 4 (taken as PDE4L value)): 6.9 ± 0.6 µM

Compound: Cc1[nH]c(=O)c(C#N)cc1-c1ccncc1 [milrinone, reference compound]
- Ki (PDE3; Lineweaver-Burk analysis, cAMP substrate, read-out: Ki on PDE isozyme 3): 1600 ± 200 nM
- Mode of inhibition of PDE3 activity (PDE3; Lineweaver-Burk analysis, S-petasin 3–30 μM, milrinone 0.3–3 μM): competitively inhibited
- IC50 (PDE3; mean ± SEM (n), read-out: IC50 on PDE isozyme 3): 1500 ± 200 nM
